Data set [1] addresses T1, CFTR ΔF508 mutant (Homo sapiens, UniProt P13569, DEL508-508).
T1 construct: expressed in transfected cells; host or cells: CFBE41o- (adenoviral transduction)
The data set is described as follows: YFP-halide influx assay for the CFTR-ΔF508 mutation (96 well, CFBE41o- cells). The format is cell-based. The note with it: compounds of the invention, 96 well, forskolin 10.67 μM, read-out: EC50 measured by YFP-halide influx assay for the CFTR-ΔF508. The procedure, abridged:
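CFBE41o- cells were adenovirally transduced with CFTR ΔF508 and the halide-sensitive YFP H148Q/I152L. They were then corrected either at 27 °C for 24 h or with a CFTR modulator for 24 h at 37 °C. After iodide injection, YFP quenching over 7 s was expressed as 1−F/F0, and EC50 was derived from the concentration–response plot.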

In data set [2] the target is T1, CFTR ΔF508 mutant. Briefly: YFP-halide influx assay for the CFTR-ΔF508 mutation (384 well, CFBE41o- cells, FDSS/μCell). The data set is classed as cell-based. The settings on record: forskolin 10.67 μM, fluorescence after 36 seconds, read-out: EC50 measured by YFP-halide influx assay for the CFTR-ΔF508. The procedure, abridged:
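CFBE41o- cells were adenovirally transduced with ΔF508 CFTR and the YFP H148Q/I152L reporter. Cells were then held 24 h at 27 °C or treated 24 h at 37 °C with a CFTR modulator. Iodide-induced quench was recorded for 2 min, and EC50 was derived from 1−F/F0 at 36 s against compound concentration.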

The next data set has as its target T2, CFTR G551D mutant (Homo sapiens, UniProt P13569, G551D).
T2 construct: expressed in transfected cells; host or cells: HEK293 (reverse transfection with plasmids)
Briefly: YFP-halide influx assay for the CFTR-G551D mutation (HEK293 cells). The data set is classed as cell-based. The settings on record: HEK293 cells expressing CFTR G551D and YFP reporter; forskolin 10.67 μM; read-out: EC50 measured by YFP-halide influx assay for the CFTR-G551D. The procedure, abridged:
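HEK293 cells reverse-transfected with CFTR G551D and halide-sensitive YFP, expressed 24 h at 37 °C. Iodide-induced fluorescence quench recorded for 7 s after I^− injection; response as 1−F/F0, EC50 from concentration plot.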

The target of a further data set is CFTR G551D (Homo sapiens, UniProt P13569, G551D). Briefly: TECC assay, FRT cells stably transfected with G551D CFTR. The format is cell-based. The note with it: high expression CFTR-G551D cells, several values in a cell = repeat determinations. The procedure:
7.2.3. FRT-CFTR G551D Protocol
For G551D recordings, Fish Rat Thyroid (FRT) cells stably transfected with G551D CFTR (a low CFTR-G551D expressing cell line and a high expressing CFTR-G551D cell line from Rosalind Franklin University of medicine and science, Chicago, Ill.) are plated on Transwell supports (Costar 6.5 mm Diameter, […]). The cells are grown for 8-10 d under liquid-liquid interface conditions prior to electrophysiological readings. For electrophysiological recording, the FRT-G551D cells are mounted in the TECC heating plate for electrophysiological measurement and kept at 37° C. The epithelia are bathed in hepes buffered culturing medium without FBS on both the basolateral and apical sides. Apical amiloride is used to inhibit the endogenous ENaC currents while forkolin is applied on both apical and basolateral side to stimulate CFTR. After forskolin triggering, compounds are added on both sides to test their potential for increasing CFTR gating. Measurements are done during a 10 minute timeframe with recordings every 2 min. The increase in ISC is used as a measure for the increased CFTR activity, EC50 values can be generated by measuring impact of different concentrations of compound on ISC on the cells, for this purpose each transwell is treated with a different compound concentration. Inh-172, an inhibitor specific for CFTR, is used to test the specificity of the tested compounds.
When subjected to this protocol, the following EC50 are measured.

A further data set can be described thus: Lung distribution study. The data set is classed as in vivo, Sprague-Dawley rats. The settings on record: male, Sprague-Dawley, rat, plasma, oral, 10 mg/kg, exposure values. On the procedure: Sprague-Dawley rats (male, 5-6 weeks old) are obtained from Janvier (France). Rats are acclimatized for at least 5 days before treatment and are kept on a 12 h light/dark cycle. Temperature is maintained at approximately 22° C., and food and water are provided ad libitum. Two days before administration of the test compounds, rats may undergo surgery to place a catheter in the jugular vein under isoflurane anesthesia. After the surgery, rats are housed individually. Rats are deprived of food for at least 16 h before oral dosing and 6 h after. Water is provided ad libitum.
8.7.3. Lung Distribution Studies
Compounds are formulated in 0.5% methylcellulose and EtOH/PEG 200/Methylcellulose 0.5% (10/25/65 v/v/v) by the oral route. Test compounds are orally dosed as a single esophageal gavage at 10 mg/kg under a dosing volume of 5 mL/kg. Each group consists of 12 rats. At each time point, typically 1, 3, 6 and 24 h, animals are euthanized and blood and lung samples are collected. Whole blood samples are centrifuged at 1500 g for 10 min and the resulting plasma samples, along with the lung samples, are stored at −20° C. pending analysis.
8.7.4. Quantification of Compound Levels in Plasma and Lung Samples
Lung samples are milled in the presence of ceramic beads and proteins present in plasma and lung samples are precipitated with an organic solvent. Concentrations of each test compound are determined by an LC-MS/MS method in which the mass spectrometer is operated in positive or negative electrospray mode.
For each animal, the lung-to-plasma ratio is determined as the ratio between compound concentration in lung and in plasma. At each sampling time point, mean, standard error of the mean (sem) and coefficient of variation (CV %) are calculated using data from three animals.

Each structure is given as a SMILES string. pEC50: −log10 of the molar value.

T1 sequence (P13569 with tags, fused parts or gaps DEL508-508): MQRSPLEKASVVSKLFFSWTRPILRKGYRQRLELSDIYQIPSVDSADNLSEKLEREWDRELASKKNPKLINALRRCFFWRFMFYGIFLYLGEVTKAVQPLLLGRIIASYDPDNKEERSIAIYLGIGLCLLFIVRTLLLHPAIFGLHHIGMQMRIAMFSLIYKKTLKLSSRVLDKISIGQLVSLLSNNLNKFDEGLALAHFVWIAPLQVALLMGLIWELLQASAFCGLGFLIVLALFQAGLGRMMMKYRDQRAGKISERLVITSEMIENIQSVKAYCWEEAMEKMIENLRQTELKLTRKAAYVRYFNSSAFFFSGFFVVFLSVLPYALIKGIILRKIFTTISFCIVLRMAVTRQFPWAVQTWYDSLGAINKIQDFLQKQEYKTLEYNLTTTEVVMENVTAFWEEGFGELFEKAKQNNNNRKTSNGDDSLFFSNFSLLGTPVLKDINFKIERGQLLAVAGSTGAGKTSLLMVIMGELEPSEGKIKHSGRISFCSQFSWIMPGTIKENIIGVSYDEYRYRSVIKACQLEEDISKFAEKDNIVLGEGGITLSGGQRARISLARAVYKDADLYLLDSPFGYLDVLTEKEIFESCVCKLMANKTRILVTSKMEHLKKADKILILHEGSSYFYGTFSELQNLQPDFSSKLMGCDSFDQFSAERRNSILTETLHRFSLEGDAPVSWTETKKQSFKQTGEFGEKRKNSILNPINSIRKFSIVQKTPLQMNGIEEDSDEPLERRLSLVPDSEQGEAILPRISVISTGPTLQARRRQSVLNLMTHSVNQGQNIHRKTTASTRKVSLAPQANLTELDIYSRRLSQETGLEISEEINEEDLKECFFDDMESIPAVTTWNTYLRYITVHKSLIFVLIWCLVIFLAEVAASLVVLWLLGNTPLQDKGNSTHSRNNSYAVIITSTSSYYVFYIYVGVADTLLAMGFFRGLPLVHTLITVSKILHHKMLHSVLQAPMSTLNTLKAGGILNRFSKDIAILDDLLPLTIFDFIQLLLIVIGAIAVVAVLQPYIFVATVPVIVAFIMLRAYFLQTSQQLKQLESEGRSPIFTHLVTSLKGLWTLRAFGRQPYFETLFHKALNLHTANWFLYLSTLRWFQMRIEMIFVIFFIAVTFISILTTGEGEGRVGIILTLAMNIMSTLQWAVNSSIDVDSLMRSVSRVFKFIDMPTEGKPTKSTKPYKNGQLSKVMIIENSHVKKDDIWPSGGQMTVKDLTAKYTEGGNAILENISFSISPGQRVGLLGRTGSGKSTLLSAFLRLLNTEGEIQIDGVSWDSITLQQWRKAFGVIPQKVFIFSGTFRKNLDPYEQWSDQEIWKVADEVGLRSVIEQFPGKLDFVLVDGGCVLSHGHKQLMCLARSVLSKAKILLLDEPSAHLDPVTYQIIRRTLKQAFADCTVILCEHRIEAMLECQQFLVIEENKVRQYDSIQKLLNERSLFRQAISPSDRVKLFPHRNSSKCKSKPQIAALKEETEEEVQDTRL
Sequence of CFTR G551D (P13569 whole entry G551D): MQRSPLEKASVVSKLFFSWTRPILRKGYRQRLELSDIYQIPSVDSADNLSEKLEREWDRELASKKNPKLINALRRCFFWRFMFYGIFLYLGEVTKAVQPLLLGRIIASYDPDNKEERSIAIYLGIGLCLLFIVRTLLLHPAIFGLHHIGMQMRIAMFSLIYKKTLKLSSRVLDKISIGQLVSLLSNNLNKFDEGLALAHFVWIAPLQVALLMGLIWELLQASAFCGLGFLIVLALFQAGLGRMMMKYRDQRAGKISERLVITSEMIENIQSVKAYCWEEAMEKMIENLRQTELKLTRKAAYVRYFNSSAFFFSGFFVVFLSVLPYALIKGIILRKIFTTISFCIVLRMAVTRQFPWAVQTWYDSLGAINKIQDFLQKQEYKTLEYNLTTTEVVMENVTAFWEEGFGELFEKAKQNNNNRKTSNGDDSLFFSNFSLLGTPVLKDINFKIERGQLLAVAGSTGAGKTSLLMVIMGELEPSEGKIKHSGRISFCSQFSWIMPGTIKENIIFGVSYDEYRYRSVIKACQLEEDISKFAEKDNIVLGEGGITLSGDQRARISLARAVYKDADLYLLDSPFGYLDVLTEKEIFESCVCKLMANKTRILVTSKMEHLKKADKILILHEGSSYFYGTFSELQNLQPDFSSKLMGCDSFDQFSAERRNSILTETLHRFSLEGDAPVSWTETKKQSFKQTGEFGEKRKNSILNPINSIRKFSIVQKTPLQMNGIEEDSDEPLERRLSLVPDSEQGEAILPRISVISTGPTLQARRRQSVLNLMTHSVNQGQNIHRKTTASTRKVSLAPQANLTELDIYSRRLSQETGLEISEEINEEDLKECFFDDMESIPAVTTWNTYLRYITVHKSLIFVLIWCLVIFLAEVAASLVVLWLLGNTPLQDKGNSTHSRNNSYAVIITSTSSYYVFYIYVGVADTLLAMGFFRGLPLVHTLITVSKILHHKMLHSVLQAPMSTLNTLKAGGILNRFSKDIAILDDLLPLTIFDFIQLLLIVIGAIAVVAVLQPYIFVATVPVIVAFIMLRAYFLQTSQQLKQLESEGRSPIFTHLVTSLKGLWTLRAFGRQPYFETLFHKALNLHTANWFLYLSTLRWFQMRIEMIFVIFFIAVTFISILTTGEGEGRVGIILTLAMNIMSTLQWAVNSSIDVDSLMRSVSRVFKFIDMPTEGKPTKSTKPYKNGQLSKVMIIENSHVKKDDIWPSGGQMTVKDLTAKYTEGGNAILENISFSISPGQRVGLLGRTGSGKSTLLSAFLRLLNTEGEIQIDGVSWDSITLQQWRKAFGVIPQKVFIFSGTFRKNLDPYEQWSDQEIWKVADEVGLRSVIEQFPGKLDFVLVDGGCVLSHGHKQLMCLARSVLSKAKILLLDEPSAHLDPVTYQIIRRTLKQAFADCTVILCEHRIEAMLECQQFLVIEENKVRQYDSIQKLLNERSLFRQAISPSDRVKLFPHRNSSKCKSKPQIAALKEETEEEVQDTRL
T2 sequence (P13569 whole entry G551D): as above

By pEC50 is commonly meant the negative decadic logarithm of the EC50, by convention in mol/L. A word on the AUC(0-t): it is the area under the concentration-time curve up to a stated or last time point. Low readings indicate less exposure, high ones more exposure. Turning to `CC1(C)Cc2c(sc(NC(=O)c3[nH]ncc3Cl)c2C(N)=O)C(C)(C)O1` [Compound 25, N-(3-carbamoyl-5,5,7,7-tetramethyl-5,7-dihydro-4H-thieno[2,3-c]pyran-2-yl)-4-chloro-1H-pyrazole-3-carboxamide], the pEC50 at CFTR ΔF508 mutant [1] was 8.38; at CFTR ΔF508 mutant [2], 8.65; at CFTR G551D mutant, 7.09; on CFTR G551D, 7.15. The AUC(0-t) in “Lung distribution study” stood at 439 ng·h/mL.
